From patent US10233161B2, “Pharmaceutical compositions and salts of a 1,2,4-oxadiazole benzoic acid” (PTC Therapeutics, Inc., priority 2014, dated 2019)

Tests used:
[1] = Comparative equilibrium solubility study of micronized and non-micronized Compound 1; assay type: physicochemical
Protocol: Objective: The purpose of this study was to evaluate the solubility of micronized and non-micronized Compound 1. The solubility study was conducted in two representative media in pH 1 (0.1 N HCl with 0.5% sodium lauryl sulfate) and in pH 7.4 (0.1M phosphate buffered saline). The experiment further compared the initial rate of dissolution and equilibrium solubilities of micronized and non-micronized Compound 1 over a period of time.
Solubility measurement procedure comprised the steps of: 1) weighing and mixing approximately 100 mg of micronized Compound 1 and 100 mL of 0.1N HCl with 0.5% SLS into amber jar 1; 2) weighing and mixing approximately 100 mg of micronized Compound 1 and 100 mL of PBS into amber jar 2; 3) weighing and mixing approximately 100 mg of non-micronized Compound 1 and 100 mL of 0.1N HCl with 0.5% SLS into amber jar 3; 4) weighing and mixing approximately 100 mg of non-micronized Compound 1 and 100 mL of PBS into amber jar 4; 5) mixing all samples in their respective amber jars using a multi purpose rotator for 2 hours; 4) sampling at 5 minutes, 10 minutes, 30 minutes, 60 minutes, 90 minutes, 120 minutes; 5) filtering the samples and 6) analyzing the filtrates using HPLC. For each time point, 10 mL of sample was drawn using a 10 mL syringe with a needle attached filter and using a syringe-top 0.45 μm PTFE syringe filter. The first 9 mL of the samples collected were put back into the original amber jar and then remaining 1 mL was transferred to HPLC vial for analysis.

[2] = system: nonsense mutation in the mouse PAX6 gene; assay: Nonsense mutation mouse model of aniridia (PAX6^Sey+/−); assay type: in vivo
Protocol: Compound 1 was administered subcutaneously to PAX6 mutant and wild-type mice for 10 days (Postnatal Day 4-14) or administered topically as an ophthalmic suspension formulation (0.9% sodium chloride, 1% Tween 80, 1% powdered Compound 1, 1% carboxymethylcellulose), twice per day for 46 days (Postnatal Day 14-60). […] In the untreated mutant mouse group, progressive in-folding of the retina and abnormally small lenses was observed.
(§1) Additional successful results were achieved after topical administration of Compound 1 directly into the eye as an ophthalmic suspension formulation (0.9% sodium chloride, 1% Tween 80, 1% powdered Compound 1, 1% carboxymethylcellulose). The lens and retinal defects, observed in the untreated eyes, reversed in the Compound 1-treated mutant mice and closely resembled wild-type mice (FIG. 36B). […] Treatment with Compound 1 caused an increase in the PAX6 protein by 90% in the corneal and retinal epithelium protein lysates compared to wild-type mice (FIG. 36C) as measured by enzyme-linked immunosorbent assay (ELISA).
As a test for effects on visual acuity in the mice, the optokinetic tracking response was measured, which is a behavioural response mediated through the retina-brain circuitry.

[3] = system: splice-site mutation in PAX6 (PAX6^Sey-1Neu); assay: Mouse model containing a splice-site mutation in PAX6 (PAX6^Sey-1Neu); assay type: in vivo
Source text: as §1

[4] = Aqueous solubility determination of salts; assay type: physicochemical; details: for pH (aqueous solubility): pH at aqueous solubility; for pH / Solubility: Table 10; for pH: pH of the filtrate; for Solubility: 500 rpm, free acid by HPLC
Protocol: Each salt was suspended in water and shaken for 24 h at 25° C. and 500 rpm. The resulting suspensions were filtered (0.1 μm filter). The obtained solid residues were analyzed by FT-Raman. The pH of the filtrate was measured, and the concentration of the free acid was determined by HPLC.

[5] = Dynamic Vapor Sorption (DVS) / hygroscopicity; assay type: physicochemical; details: for DVS behaviour (figure legend): FIG. 17-21; for DVS result: Table 4; for Hygroscopicity (class): classified according to the European Pharmacopoeia; for DVS water uptake: from 80% to 95% r.h. (equilibrium reached); for Hygroscopicity (mass change): mass change in the range 0→85% r.h.; for DVS mass remaining higher than the original mass: upon lowering the relative humidity again (to 50% r.h.)
Protocol: DVS measurements (50%→0%→95%→50% r.h.) were performed on the samples of potassium salt 1, sodium salt 1, tromethamine salt 1, L-lysine salt and magnesium salt 2.

[6] = Crystallinity estimated from PXRD; assay type: physicochemical; design: key: +++ = high; ++ = good; + low
[7] = subcutaneous, 10 days (Postnatal Day 4-14), PAX6 mutant mice
[8] = topical 1% ophthalmic suspension

SMILES | Aqueous solubility ([4]; Table 2, water, 24 h, 25° C.) [mg/mL] | Aqueous solubility ([4]; Table 4) [mg/mL] | pH (aqueous solubility) ([4]; Table 4) | pH [4] | Solubility ([4]; water, 24 h, 25° C.) [mg/mL] | DVS behaviour (figure legend) [5] | DVS result [5] | Hygroscopicity (class) [5] | DVS water uptake [5] | Hygroscopicity (mass change) [5] | DVS mass remaining higher than the original mass [5] [wt. %] | Crystallinity [6] | other results
O=C(O)c1cccc(-c2noc(-c3ccccc3F)n2)c1 [Compound 1, 3-[5-(2-fluoro-phenyl)-[1,2,4]oxadiazol-3-yl]-benzoic acid] | – | – | – | – | – | – | – | – | – | – | – | – | Time at which solubility equilibrium was reached ([1]; pH 1 media): approximately 30 minutes; Time at which equilibrium solubility was reached ([1]; pH 7.4 media): approximately 2 hours; Optokinetic tracking response (visual acuity) ([2]; spatial frequency threshold, treated mutant mice): significant improvement in the spatial frequency threshold; Increase of the size of the lens [2, 7]: 70%; Retinal in-folding [2, 7]: corrected the retinal in-folding; Disease progression and malformation ([2]; summary for the aniridia model): inhibited disease progression and reversed malformation in the cornea, lens and retina; Histological examination of the cornea [2, 8]: decreased corneal thickening; Retina response to light stimulation [2, 8]: increased response to light stimulation; Lens and retinal defects ([2]; topical 1% ophthalmic suspension, twice per day, Postnatal Day 14-60): reversed; Increase in the PAX6 protein ([2]; topical 1% ophthalmic suspension, corneal and retinal epithelium protein lysates, ELISA): 90%; Response to therapy [3]: did not show a response
O=C([O-])c1cccc(-c2noc(-c3ccccc3F)n2)c1.[K+] [Potassium salt 1] | 57 | 57.00 | 9.2 | 9.2 | 57 | small irreversible water uptake | H not detected; DVS: hygroscopic sample, hydrate formation; (increase of the mass is less than 15% and equal or greater than 2%) | (hygroscopic) (increase of the mass is less than 15% and equal or greater than 2%) | roughly 3 wt. % | +7.81 wt % | ~1 | + | DVS mass loss ([5]; humidity decreased to 0% r.h. (equilibrium not reached)): ~6 wt. %; DVS water uptake (mass change) ([5]; humidity further increased to 80% r.h.): ~1.5 wt. %
O=C([O-])c1cccc(-c2noc(-c3ccccc3F)n2)c1.[Na+] [Sodium salt 1] | 22 | 22.22 | 8.3 | 8.3 | 22 | stepwise irreversible water uptake | acidic H not detected; DVS: hygroscopic sample, hydrate (increase of the mass is less than 15% and equal or greater than 2%) | (very hygroscopic) (increase of the mass ≥15%) | – | +19.52 wt % | ~16 | ++ | DVS reversible mass change ([5]; 50% to 0% r.h. and again to 50% r.h.): 2 wt. %; DVS water uptake in one step ([5]; from 50% to 62% r.h.): Approximately 10 wt. %; DVS further water uptake, second step ([5]; humidity increased to 80% r.h. (equilibrium not reached)): ~6 wt. %; DVS water uptake up to 95% r.h. ([5]; humidity increased to 95% r.h.): 20 wt. %
NC(CO)(CO)CO.O=C(O)c1cccc(-c2noc(-c3ccccc3F)n2)c1 [Tromethamine salt 1] | 18 | – | – | 8.1 | 18 | large reversible water uptake with hysteresis | hygroscopic sample; Aqueous solubility (increase of the mass is less than 15% and equal or greater than 2%) | (hygroscopic) (increase of the mass is less than 15% and equal or greater than 2%) | ~25 wt. % | +3.59 wt % | – | +++ | DVS weight loss to a value lower than the original mass ([5]; below 70% r.h. on the way down): 3 wt. %; DVS mass change ([5]; humidity decreased to 0% r.h. and then raised to 80% r.h.): no significant mass change; DVS overall weight loss ([5]; whole DVS cycle): 3%
